Measured values: patent US20220054476A1, “SUSTAINED LOCAL DRUG LEVELS FOR INNATE IMMUNE AGONISTS” (Ascendis Pharma Oncology Division A/S, priority 2019, published 2022)
Marks after values point to notes of the source that are not given here.

Columns and labels:
[1] = test system: Ly-6C^+ antigen presenting cells, MHCII^+ antigen presenting cells, CD8^+, Ly-6C^+ CD8^+ and CD4^+ T cells of tumor draining lymph nodes; assay: Flow cytometric profiling of tumor draining lymph node immune cells (Example 15); assay type: in vivo, BALB/C mice; details: 7 days after randomization
Protocol: Hydrogels were administered as suspension in PTP buffer. Some cohorts were further treated with 20 μg human IL-2 (Peprotech, Rocky Hill, N.J.), intraperitoneally (I.P.), twice a day for 5 days. Mice were sacrificed 7 days after randomization (D0). Following sacrifice, tumor draining lymph nodes were isolated from both flanks and were dissociated mechanically to generate a single cell suspension at a cell concentration of 1×10^6 cells per sample. Cell suspensions were centrifuged at 300 g for 5 minutes. Supernatants were discarded and cells were resuspended in FACS buffer with 1 μg/ml Fc-Block and incubated at 4° C. for 10 minutes in the dark. Surface marker antibody mixtures (antibody concentration: 10 μg/mL) in FACS buffer were added to each sample and samples were incubated in the dark at 4° C. for 30 minutes. Cells were centrifuged at 300 g for 5 minutes and supernatants were discarded. Cells were washed and then resuspended with FACS buffer before cytometer collection.
After collection, FACS data was analyzed using FlowJo Version 10.6.1. Compensation was digitally adjusted using single antibody-stained beads. Samples with less than 90% viability, as determined by LiveDead cell staining, were excluded from the analysis. Cells were defined using the following gating strategy: • 1) Ly-6C^+ antigen presenting cells: FSC-H/FSC-A Singlets/LiveDead^−/CD45^+/CD3^−/CD335^−/Ly-6C^+ • 2) Ly-6C^+ MHCII^+ antigen presenting cells: FSC-H/FSC-A Singlets/LiveDead^−/CD45^+/CD3^−/CD335^−/Ly-6C^+/IA/IE (MHCII)^+ • 3) CD8^+ T cells: FSC-H/FSC-A Singlets/LiveDead^−/CD45^+/CD3^+/CD8 single positive • 4) Ly-6C^+ CD8^+ T cells: FSC-H/FSC-A Singlets/LiveDead^−/CD45^+/CD3^+/CD8 single positive/Ly-6C^+

CT26 tumor cells = assay: In vivo anti-tumor efficacy, absolute tumor volumes (Example 11); design: species or system BALB/C mice; details: single intratumoral dose (4: 20 μg; 13c: 50 μL)
Protocol: Mice were subcutaneously implanted with 3×10^5 CT26 tumor cells in the left and right flanks. […] Hydrogels were administered as suspensions in PBST buffer. Following treatment initiation, anti-tumor efficacy was assessed by determination of tumor volumes at various time points from tumor size measurements with a caliper. Tumor volumes were calculated according to the formula: Tumor volume=(L×W^2)×0.5 where L is the length of the tumor and W the width (both in mm). Mice were removed from the study once tumors were greater than 1500 mm^3.

[2] = test system: IFNγ, IL-6, CCL2/MCP-1, TNFα in plasma; assay: In vivo cytokine induction, plasma cytokine levels (Example 12); design: species or system BALB/C mice; details: for IFNγ plasma level, Mean: values at/below LLOQ set to 0.01
Protocol: Mice were subcutaneously implanted with 3×10^5 CT26 tumor cells in the left and right flanks. […] Hydrogels were administered as suspensions in PBST buffer. K2 EDTA-preserved blood samples were collected by retro-orbital bleed at various time points following drug administration and plasma was isolated following centrifugation at 2000×g for 5 minutes at 4° C. and frozen. Plasma samples were stored at −80° C. Plasma was thawed and undiluted samples were assessed for cytokine levels using the 36-Plex Mouse ProcartaPlex™ Cytokine Panel 1A (ThermoFisher Scientific) following manufacturer's recommendations. Cytokines were measured on the Bio-Plex 200 (BioRad) following kit instructions.

[3] = test system: cytokine and chemokine genes (Il1a, Ccl3, Il1b, Cxcl2, Ccl2, Ccl4, Il10, Ifna4, Cxcl1, Cxcl10, Tnf) in PBMC; assay: PBMC gene expression 6 hours post-treatment, qPCR (Example 17); assay type: in vivo, BALB/C mice; design: key to Cxcl2 gene expression, Mean (2^ΔΔCT) / Ccl2 gene expression, Mean (2^ΔΔCT) / Ccl4 gene expression, Mean (2^ΔΔCT) / Ifna4 gene expression, Mean (2^ΔΔCT) / Cxcl1 gene expression, Mean (2^ΔΔCT) / Cxcl10 gene expression, Mean (2^ΔΔCT) / Il1a gene expression, Mean (2^ΔΔCT) / Tnf gene expression, Mean (2^ΔΔCT): fold change vs untreated, 2^-ΔΔCT, normalized to B2M/UBB/GAPDH
Protocol: Hydrogels were administered as suspensions in […]. […] Tumors were excised, weighed and snap frozen. […] For PBMC isolations, approximately 600 μl of whole blood was collected via cardiac puncture. The collected whole blood from each individual mouse was diluted with a 1:1 ratio of pre-warmed PBS supplemented with 2% Fetal Bovine Serum (FBS). Then an equal volume of Histopaque-1083 was added to a new sterile 15 mL conical tube, where the diluted whole blood was layered over the Histopaque-1083. The mixture was then centrifuged at 400 g for 30 minutes. The top plasma layer was discarded, and the white translucent interlayer (mononuclear cells) was carefully transferred to a new sterile centrifuge tube. The mononuclear cells were then washed with PBS supplemented with 2% FBS and then were spun down at 250 g for 10 minutes. Afterwards, the cells were lysed with 2 ml of Ammonium-Chloride-Potassium (ACK) lysis buffer (Gibco) for 5 minutes at room temperature to get rid of the red blood cells following manufacturer's instruction. Subsequently, the cells were washed twice with PBS supplemented with 2% FBS and were centrifuged at 250 g for 10 minutes. Then, the supernatant was removed and the PBMC cell pellet was lysed in RLT buffer (Qiagen) and stored at −80° C. before being proceeded to RNA extraction and isolation. Lysates from untreated control samples and 6 hour treated samples were thawed and RNA was isolated using the RNeasy Mini Kit (QIAGEN) following manufacturer's recommendations. Following the first column washing step, DNA was digested directly on the column using the RNase-free DNase Set (TIANGEN) following manufacturer's recommendations. RNA was eluted with RNase-free water. RNA concentrations were measured using a NanoDrop (ThermoFisher) and then adjusted to 200 ng/mL with RNase-free water. RNA quality was assessed using a NanoDrop (ThermoFisher). […] Reverse transcription was performed using random primers, 10 mM dNTP mix, and RNase inhibitor (TIANGEN). Reverse transcription was performed with the following thermal steps: 25° C. for 10 minutes, 37° C. for 120 minutes, 55° C. for 5 minutes. 200 ng of cDNA was used for quantitative PCR using the RT^2 SYBR Green ROX qPCR Master mix (2×) kit (QIAGEN) following manufacturer's recommendations. Probe sets used for qPCR reactions are as follows: [table] Cycle thresholds (CT) were collected using a 384-well platform ABI-7900H real-time qPCR system (Applied Biosystems). B2M, Ubb and GAPDH were used as housekeeping control genes. Data is reported as the average of the 2^-ΔΔCT values for each treatment. 2^-ΔΔCT values were calculated with the following formula: 2^-ΔΔCT=2^−(ΔCT(treated)−ΔCT(untreated)) ΔCT(treated)═CT(treated)−CT (average treated housekeeping) where CT(treated)═CT of the gene of interest of a sample triplicate in the treatment group and CT (treated housekeeping)=Total average CT of the B2M, UBB and GAPDH housekeeping genes of the same sample triplicate in the same treatment group. ΔCT(untreated)═CT (untreated)−CT (untreated housekeeping) where CT (untreated)=average of the CTs of the untreated triplicates at the same timepoint as the CT(treated) comparator and CT (untreated housekeeping)=Total average CT of the B2M, UBB and GAPDH housekeeping genes of the untreated triplicates. For each gene, 3 technical replicates were analyzed per biological replicate. Undetermined technical replicate CT values were recorded as zero ΔCT values. 4-5 biological replicates were assessed in total.

[4] = Resiquimod concentration in plasma samples after intratumoral injection (Example 17); assay type: in vivo, BALB/C mice; details: female, BALB/C, mouse, other: intratumoral injection, 10 μg
Protocol: Hydrogels were administered as suspensions in PTP buffer. […] Tumors were excised, weighed and snap frozen.

in vivo = assay: in vivo; design: species or system WISTAR rats; details: male, Wistar, rat, sc, 25 ug; for half-life: t1/2 (biphasic)
Description: Hydrogels were suspended (ca. 6% wt/v) PBST buffer at pH 7.4. […] Blood samples were withdrawn and used for plasma generation over the course of 28 d. […] Plasma concentration profiles were generated and analyzed with Phoenix WinNonlin software (Certara, Princeton, N.J., USA).

[5] = 1 h post-treatment, single intratumoral dose
[6] = 3 h post-treatment, single intratumoral dose
[7] = 6 h post-treatment, single intratumoral dose
[8] = 10 h post-treatment, single intratumoral dose
[9] = 24 h post-treatment, single intratumoral dose

- concentration at 0 h ([4]; 0 hours): 210 ng/mL
- concentration at 6 h ([4]; 6 hours): 0.36 ng/mL
- concentration at 22 h ([4]; 22 hours): 0.022 ng/mL
- concentration at 72 h ([4]; 72 hours): 0.014 ng/mL
- AUC (in vivo): 65.4 ng·h/mL
- Cmax (in vivo): 23.1 ng/mL
- half-life (in vivo; first value): 1.5 h
- half-life (in vivo; second value): 10 h
Compound: CCOCc1nc2c(N)nc3ccccc3c2n1CC(C)(C)O [Compound 4, Resiquimod]
- Frequency of CD4^+ T cells of CD3^+ T cells, Mean ([1]; injected right flank tumor): 69.1%
- Frequency of CD8^+ T cells of CD3^+ T cells, Mean ([1]; injected right flank tumor): 29.23%
- Frequency of IA-IE (MHCII)^+ antigen presenting cells of Ly-6C^+ antigen presenting cells, Mean ([1]; injected right flank tumor): 69.63%
- Frequency of Ly-6C^+ T cells of CD8^+ T cells, Mean ([1]; injected right flank tumor): 53.7%
- Frequency of Ly-6C^+ antigen presenting cells of non-T cells, Mean ([1]; injected right flank tumor): 2.5%
- Frequency of CD4^+ T cells of CD3^+ T cells, Mean ([1]; uninjected left flank tumor): 69.25%
- Frequency of CD8^+ T cells of CD3^+ T cells, Mean ([1]; uninjected left flank tumor): 29%
- Frequency of IA-IE (MHCII)^+ antigen presenting cells of Ly-6C^+ antigen presenting cells, Mean ([1]; uninjected left flank tumor): 35.05%
- Frequency of Ly-6C^+ T cells of CD8^+ T cells, Mean ([1]; uninjected left flank tumor): 48%
- Frequency of Ly-6C^+ antigen presenting cells of non-T cells, Mean ([1]; uninjected left flank tumor): 7.8%
- Absolute Tumor Volumes, Mean (CT26 tumor cells; day 0 post-treatment): 88.82 mm^3
- Absolute Tumor Volumes, Mean (CT26 tumor cells; day 2 post-treatment): 108.44 mm^3
- Absolute Tumor Volumes, Mean (CT26 tumor cells; day 4 post-treatment): 128.42 mm^3
- Absolute Tumor Volumes, Mean (CT26 tumor cells; day 7 post-treatment): 316.07 mm^3
- Absolute Tumor Volumes, Mean (CT26 tumor cells; day 9 post-treatment): 549.72 mm^3
- Absolute Tumor Volumes, Mean (CT26 tumor cells; day 11 post-treatment): 957.90 mm^3
- Absolute Tumor Volumes, Mean (CT26 tumor cells; day 14 post-treatment): 1220.96 mm^3
- CCL2/MCP-1 plasma level, Mean [2, 5]: 357.83 pg/mL
- IL-6 plasma level, Mean [2, 5]: 3618.87†, ‡ pg/mL
- TNFα plasma level, Mean [2, 5]: 830.84 pg/mL
- IFNγ plasma level, Mean ([2]; 1 h post-treatment, single intratumoral dose (4: 20 μs; 13c: 50 μL)): 4.04 pg/mL
- CCL2/MCP-1 plasma level, Mean [2, 6]: 4230.35†, ‡ pg/mL
- IL-6 plasma level, Mean [2, 6]: 1739.75†, ‡ pg/mL
- TNFα plasma level, Mean [2, 6]: 136.25 pg/mL
- IFNγ plasma level, Mean [2, 6]: 15.49†, ‡ pg/mL
- CCL2/MCP-1 plasma level, Mean [2, 7]: 1039.17†, ‡ pg/mL
- IL-6 plasma level, Mean [2, 7]: 88.59 pg/mL
- TNFα plasma level, Mean [2, 7]: 35.49 pg/mL
- IFNγ plasma level, Mean [2, 7]: 40.72†, ‡ pg/mL
- CCL2/MCP-1 plasma level, Mean [2, 8]: 847.07† pg/mL
- IL-6 plasma level, Mean [2, 8]: 154.51 pg/mL
- TNFα plasma level, Mean [2, 8]: 43.32 pg/mL
- IFNγ plasma level, Mean [2, 8]: 28.19†, ‡ pg/mL
- CCL2/MCP-1 plasma level, Mean [2, 9]: 92.58 pg/mL
- IL-6 plasma level, Mean [2, 9]: 44.71 pg/mL
- TNFα plasma level, Mean [2, 9]: 9.74 pg/mL
- IFNγ plasma level, Mean [2, 9]: 2.38 pg/mL
- Ccl2 gene expression, Mean (2^ΔΔCT) ([3]; qPCR): 6.75
- Ccl3 gene expression, Mean (2^ΔΔCT) ([3]; qPCR): 1.43†
- Ccl4 gene expression, Mean (2^ΔΔCT) ([3]; qPCR): 1.31
- Cxcl1 gene expression, Mean (2^ΔΔCT) ([3]; qPCR): 7.41
- Cxcl2 gene expression, Mean (2^ΔΔCT) ([3]; qPCR): 35.37
- Cxcl10 gene expression, Mean (2^ΔΔCT) ([3]; qPCR): 45.38
- Ifna4 gene expression, Mean (2^ΔΔCT) ([3]; qPCR): 2.97
- Il1a gene expression, Mean (2^ΔΔCT) ([3]; qPCR): 0.41
- Il1b gene expression, Mean (2^ΔΔCT) ([3]; qPCR): 3.71†
- Il10 gene expression, Mean (2^ΔΔCT) ([3]; qPCR): 2.77†
- Tnf gene expression, Mean (2^ΔΔCT) ([3]; qPCR): 4.64
- Ccl2 Fold change (4/13i) ([3]; ratio of mean 4 to mean 13i): 2.82
- Ccl3 Fold change (4/13i) ([3]; ratio of mean 4 to mean 13i): 1.64
- Ccl4 Fold change (4/13i) ([3]; ratio of mean 4 to mean 13i): 1.74
- Cxcl1 Fold change (4/13i) ([3]; ratio of mean 4 to mean 13i): 11.54
- Cxcl2 Fold change (4/13i) ([3]; ratio of mean 4 to mean 13i): 6.43
- Cxcl10 Fold change (4/13i) ([3]; ratio of mean 4 to mean 13i): 21.41
- Ifna4 Fold change (4/13i) ([3]; ratio of mean 4 to mean 13i): 20.48
- Il1a Fold change (4/13i) ([3]; ratio of mean 4 to mean 13i): 1.78
- Il1b Fold change (4/13i) ([3]; ratio of mean 4 to mean 13i): 7.92
- Il10 Fold change (4/13i) ([3]; ratio of mean 4 to mean 13i): 2.29
- Tnf Fold change (4/13i) ([3]; ratio of mean 4 to mean 13i): 4.45
